Test [1] deals with A2780cisR. Kind of test: Downregulation of BAX expression in cisplatin resistant human A2780 cisR cells at 2 uM incubated for 48 hrs by Immunoblotting analysis. The test is classed as functional, cell-based. For orientation: Immunoblotting shows a protein as a band on a membrane.
The nature of test [2]: cells. Conditions: Homo sapiens, Cal27CisR.
Description: Inhibition of class IIa/8 HDAC (unknown origin) in cisplatin resistant human Cal27CisR cells using Boc-Lys(TFA)-AMC as substrate preincubated with compound for 18 hrs followed by substrate addition and measured after 3 hrs by NOVOstar microplate reader analysis
Test [3] has as its system CAL-27. Kind of test: Induction of apoptosis in human CAL-27 cells assessed as apoptotic nuclei at sub-G1 phase at 0.316 uM incubated for 48 hrs by flow cytometric analysis. In kind it is functional, cell-based.
Test [4] has as its system A2780cisR. Kind of test: Induction of apoptosis in cisplatin resistant human A2780 cisR cells assessed as increase in apoptotic nuclei at sub-G1 phase at 2 uM incubated for 48 hrs by flow cytometric analysis. The test is classed as functional, cell-based. A general note: Flow cytometry measures light scatter and fluorescence of single cells or particles in a stream.
Test [5] relates to A2780. The experiment in a line: Induction of apoptosis in human A2780 cells assessed as increase in caspase 3/7 activation at 0.75 uM in presence of cisplatin preincubated with compound for 48 hrs co-treated with cisplatin and measured after 24 hrs by capase3/7 green dye based analysis. In kind it is functional, cell-based. Particulars: time 72.0 hrs.
Test [6] deals with MV4-11. Kind of test: cells. Particulars: Homo sapiens, MV4-11, 72 h.
Description: Cytotoxicity against human MV4-11 cells harboring wild type p53 assessed as cell viability incubated for 72 hrs by MTT assay
For test [7], the system named is CAL-27. The experiment in a line: Induction of apoptosis in human CAL-27 cells assessed as caspase-3/7 activation at 0.316 uM incubated for 48 hrs by capase3/7 green dye based analysis. In kind it is functional, cell-based.
Test [8] relates to A2780cisR. Kind of test: Induction of cell cycle arrest in cisplatin resistant human A2780 cells assessed as increase in p21 expression at 2 uM incubated for 48 hrs by Western blotting analysis. In kind it is functional, cell-based.
Test [9] relates to A2780cisR. The experiment in a line: Induction of apoptosis in cisplatin resistant human A2780 cisR cells assessed as increase in Bcl-2 protein level at 2 uM in presence of cisplatin at 16 uM preincubated with compound for 48 hrs prior to addition of cisplatin and measured after 24 hrs by Immunoblotting analysis. In kind it is functional, cell-based. Particulars: time 72.0 hrs.

Test [10] relates to Cal27CisR. The experiment in a line: Induction of apoptosis in cisplatin resistant human Cal27CisR cells assessed as increase in apoptotic nuclei at sub-G1 phase at 0.316 uM in presence of cisplatin at 3 uM preincubated with compound for 48 hrs prior to addition of cisplatin and measured after 24 hrs by flow cytometric analysis. In kind it is functional, cell-based. Particulars: time 72.0 hrs.

Test [11] deals with A2780cisR. The experiment in a line: Induction of DNA damage in cisplatin resistant human A2780 cisR cells assessed as increase in gammaH2AX formation at 2 uM in presence of cisplatin at 16 uM pretreated with compound for 48 hrs prior to addition of cisplatin and measured after 24 hrs by Hoechst 33342 staining based Immunofluorescence analysis. In kind it is functional, cell-based. Conditions: time 72.0 hrs.

The target of test [12] is T1, Protein deacetylase HDAC6 (Homo sapiens, UniProt Q9UBN7).
T1 sequence (Q9UBN7 whole entry): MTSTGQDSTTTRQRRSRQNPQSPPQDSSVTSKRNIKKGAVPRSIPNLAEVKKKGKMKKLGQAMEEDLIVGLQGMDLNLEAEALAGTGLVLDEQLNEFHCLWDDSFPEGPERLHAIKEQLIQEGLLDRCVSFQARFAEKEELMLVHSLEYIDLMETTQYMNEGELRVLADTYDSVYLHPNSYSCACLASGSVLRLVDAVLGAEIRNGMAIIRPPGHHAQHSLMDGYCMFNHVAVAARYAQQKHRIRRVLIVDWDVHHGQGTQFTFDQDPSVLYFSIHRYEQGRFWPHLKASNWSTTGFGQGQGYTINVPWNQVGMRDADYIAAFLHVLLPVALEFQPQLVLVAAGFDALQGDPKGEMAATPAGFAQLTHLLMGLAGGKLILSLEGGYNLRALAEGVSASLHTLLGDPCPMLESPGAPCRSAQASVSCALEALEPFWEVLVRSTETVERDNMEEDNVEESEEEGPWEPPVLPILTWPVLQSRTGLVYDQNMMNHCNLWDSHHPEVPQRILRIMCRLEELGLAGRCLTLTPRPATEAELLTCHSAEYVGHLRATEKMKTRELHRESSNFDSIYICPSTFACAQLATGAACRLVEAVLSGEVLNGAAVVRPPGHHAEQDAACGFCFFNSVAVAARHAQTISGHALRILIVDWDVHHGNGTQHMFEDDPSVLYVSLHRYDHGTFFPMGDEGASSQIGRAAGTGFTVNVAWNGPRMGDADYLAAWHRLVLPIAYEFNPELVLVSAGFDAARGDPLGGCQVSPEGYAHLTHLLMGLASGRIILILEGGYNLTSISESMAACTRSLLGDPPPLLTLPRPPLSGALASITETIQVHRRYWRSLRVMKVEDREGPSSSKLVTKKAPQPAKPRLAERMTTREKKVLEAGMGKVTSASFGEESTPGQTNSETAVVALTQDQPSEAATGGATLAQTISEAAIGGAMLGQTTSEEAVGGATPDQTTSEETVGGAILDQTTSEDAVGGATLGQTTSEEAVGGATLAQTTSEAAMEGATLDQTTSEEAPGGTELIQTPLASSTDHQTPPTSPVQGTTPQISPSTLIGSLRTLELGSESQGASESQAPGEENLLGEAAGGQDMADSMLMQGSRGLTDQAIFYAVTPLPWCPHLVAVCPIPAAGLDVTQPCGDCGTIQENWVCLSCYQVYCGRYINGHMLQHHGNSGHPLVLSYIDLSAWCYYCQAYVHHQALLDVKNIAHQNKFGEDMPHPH
The experiment in a line: Inhibition of N-terminal GST-tagged full length recombinant human HDAC6 (1 to 1215 end residues) expressed in sf9 cells using ZMAL (Z-Lys(Ac)-AMC as fluorogenic substrate preincubated with compound for 60 mins followed by substrate addition and measured after 90 mins by fluorescence based microplate reader analysis.

The subject of test [13] is Cal27CisR. The experiment in a line: Downregulation of BAX expression in cisplatin resistant human Cal27CisR cells at 0.316 uM incubated for 48 hrs by Immunoblotting analysis. In kind it is functional, cell-based.
Test [14] concerns CAL-27. Kind of test: cells. Particulars: Homo sapiens, CAL-27, 72 h.
Description: Cytotoxicity against human CAL-27 cells assessed as reduction in cell viability incubated for 72 hrs by MTT assay
The subject of test [15] is A2780cisR. The experiment in a line: Downregulation of survivin expression in cisplatin resistant human A2780 cisR cells at 2 uM incubated for 48 hrs by Immunoblotting analysis. The test is classed as functional, cell-based.
Test [16] has as its system A2780. The experiment in a line: Induction of apoptosis in human A2780 cells assessed as increase in BIM expression at 0.75 uM incubated for 48 hrs by Immunoblotting analysis. In kind it is functional, cell-based.
The nature of test [17]: cells. Conditions: Homo sapiens, A2780.
Description: Inhibition of class I/6 HDAC (unknown origin) in human A2780 cells using Boc-Lys(epsilon-Ac)-AMC as substrate preincubated with compound for 18 hrs followed by substrate addition and measured after 3 hrs by NOVOstar microplate reader analysis
Test [18] can be described thus: cells. Conditions: Homo sapiens, A2780cisR.
Description: Inhibition of class I/6 HDAC (unknown origin) in cisplatin resistant human A2780 cisR cells using Boc-Lys(epsilon-Ac)-AMC as substrate preincubated with compound for 18 hrs followed by substrate addition and measured after 3 hrs by NOVOstar microplate reader analysis
The subject of test [19] is Cal27CisR. Kind of test: Induction of apoptosis in cisplatin resistant human Cal27CisR cells assessed as caspase-3/7 activation at 0.316 uM incubated for 48 hrs by capase3/7 green dye based analysis. In kind it is functional, cell-based.
The subject of test [20] is A2780. The experiment in a line: Induction of apoptosis in human A2780 cells assessed as increase in BIM expression at 0.75 uM in presence of cisplatin at 3.5 uM preincubated with compound for 48 hrs prior to addition of cisplatin and measured after 24 hrs by Immunoblotting analysis. In kind it is functional, cell-based. Conditions: time 72.0 hrs.
Test [21] in a line: cells. Particulars: Homo sapiens, CAL-27.
Description: Inhibition of class I/6 HDAC (unknown origin) in human CAL-27 cells using Boc-Lys(epsilon-Ac)-AMC as substrate preincubated with compound for 18 hrs followed by substrate addition and measured after 3 hrs by NOVOstar microplate reader analysis
The subject of test [22] is A2780. Kind of test: Induction of apoptosis in human A2780 cells assessed as caspase-3/7 activation at 2 uM incubated for 48 hrs by capase3/7 green dye based analysis. The test is classed as functional, cell-based.
The test system of test [23] is CAL-27. Kind of test: Downregulation of survivin expression in human CAL-27 cells at 0.316 uM incubated for 48 hrs by Immunoblotting analysis. The test is classed as functional, cell-based.

The source made the active and inactive calls. The calls are words filed in the database; no cut-off is given here.

Broadly, the IC50 is the concentration needed to halve the response being measured.

Regarding `CCCNNC(=O)c1ccc(CN(CC(=O)NCc2ccccc2)C(=O)c2ccc(N(C)C)cc2)cc1`, the result in [1], in test [4], in [5], in [8], in test [9] and in test [10] was Active. In addition, the outcome in [13], in test [15] and in test [23] was Active. In addition, the IC50 is 2320 nM in test [2]; 194 nM in [6]; more than 10000 nM in [12]; 660 nM in test [14]; 235 nM in [17]; 295 nM in [18]. Inhibition in [21] was half-maximal at 151 nM (IC50). For the same compound, the Activity result in test [3] is on record as “Active; Moderate Percentage Of Apoptotic Nuclei Observed”; in test [7], “Active; Low Caspase Activation Observed”; in test [19] it was “Active; Low Activation Observed”; in [22] it was “Active; Remarkable Activation Observed”. Further, the outcome in test [11], in test [16] and in test [20] was inactive.

As for `CCCCNNC(=O)c1ccc(CN(CC(=O)NCc2ccccc2)C(=O)c2ccc(N(C)C)cc2)cc1`, the outcome in test [1], in test [4], in test [5], in [8], in test [9] and in [10] was Active. Also, the result in [13], in test [15] and in [23] was Active. The IC50 in test [2] is 2220 nM; in test [6], 212 nM; in test [12] it was more than 3330 nM; in test [14], 688 nM; in test [17], 263 nM; in test [18] it was 268 nM. Moreover, the IC50 in test [21] amounted to 166 nM. Also, the Activity entry in test [3] was “Active; Moderate Percentage Of Apoptotic Nuclei Observed”; in test [7], “Active; Low Caspase Activation Observed”; in test [19] it was “Active; Low Activation Observed”; in test [22] it was “Active; Remarkable Activation Observed”. Moreover, the result in [11], in [16] and in test [20] was inactive.
